In patent US12102618B2, “Use of riluzole prodrugs to treat ataxias” (Biohaven Therapeutics Ltd., priority 2017, dated 2024):

Assays:
Type in all cases: in vivo, human
[1] = test system: subjects with spinocerebellar ataxia (SCA); test: Same trial: Clinical Global Impression-Global Improvement (CGI-I)
Method: Clinical Global Impression-Global Improvement (CGI-I)
(§1) The study is a Phase IIb/III, multicenter, randomized, double-blind, 2-arm placebo-controlled parallel-group study designed to assess safety, tolerability, and efficacy signals in a population of patients with Spinocerebellar Ataxia (SCA). Subjects will be randomized to receive placebo (QD) or BHV-4157 (140 mg QD), stratified by diagnosis (genotype) and baseline severity (Gait Item of the SARA of ≤4 and >4). Subjects with SCA3 genotype will be limited to comprise up to approximately 10% of the total population so that this most common type of SCA is not over-represented.

[2] = test system: subjects with spinocerebellar ataxia (SCA); test: Same trial: Patient Global Impression of Change (PGI-C)
Text: This is a patient self-reported global index scale that may be used to rate the response of a condition to a therapy.
(§2) Study Type: Interventional Study Design: Allocation: Randomized • Intervention Model: Parallel Assignment • Masking: Quadruple (Participant, Care Provider, Investigator, Outcomes Assessor) • Primary Purpose: Treatment • Official Title: A Phase IIb/III, Randomized, Double-blind, Placebo-controlled Trial of BHV-4157 in Adult Subjects With Spinocerebellar Ataxia Primary Outcome Measures: • To measure the change in total score on the Scale for Assessment and Rating of Ataxia (SARA) [Time Frame: The change in total score from baseline to week 8.] Secondary Outcome Measures: • To assess the safety and tolerability of BHV-4157 in subjects with SCA by measuring the frequency and severity of adverse events and discontinuations of adverse events. [Time Frame: Baseline to week 8.] Measured by the frequency and severity of adverse events and discontinuations of adverse events. • To compare efficacy of BHV-4157 with placebo on patient impression of benefit via use of the PGI-C [Time Frame: Baseline to Week 8] Change in PGI-C score
as §1

[3] = test system: patients with Spinocerebellar Ataxia (SCA); test: BHV4157-201 open-label extension phase, interim analysis: modified SARA (axial items)
Text: This example describes a study entitled: Interim Extension Phase Analyses of Study BHV4157-201: Phase IIb/III, Randomized, Double-blind, Placebo-controlled Trial of Troriluzole (BHV-4157) in Adult Subjects with Spinocerebellar Ataxia followed by 96-Week Open-Label Extension Phase.
To date, all subjects have had the chance to complete the Week 24 visit from the long term, open-label extension phase of the trial.
BHV4157-201 is an on-going Phase IIb/III, multicenter, randomized, double-blind, 2-arm placebo-controlled parallel-group study designed to assess safety, tolerability, and efficacy in a population of patients with Spinocerebellar Ataxia (SCA). The study is comprised of two periods: an 8-week randomization period, followed by a 96-week open-label extension period. Regarding key entry criteria, subjects were male and female outpatients between the ages of 18-75 years, inclusive, with a known or suspected diagnosis of the following hereditary ataxias: SCA1, SCA2, SCA3, SCA6, SCA7, SCA8 and SCA10. All subjects completed genetic testing to confirm the diagnosis of hereditary ataxias. The primary objective of the study is to compare the efficacy of troriluzole versus placebo on ataxia symptoms in patients with SCA as measured by the total score on the Scale for the Assessment and Rating of Ataxia (SARA). Secondary objectives include assessments of functional disability, non-ataxia symptoms associated with SCA, global functioning, performance-based measures of ataxia, and neuropsychiatric and cognitive functioning.
During the 8-week Randomization Phase of the study, which has been completed, 141 subjects were randomized, in a 1:1 ratio, to receive either BHV-4157 (140 mg daily) or Placebo. Subjects completing the Randomization Phase were offered approximately 96 weeks of open-label treatment, provided the investigator believed open-label treatment offered an acceptable risk-benefit profile.

[4] = test system: subjects with spinocerebellar ataxia (SCA); test: Further analysis of Example 1 study: Modified SARA, 8 week change from baseline; conditions: for change in SARA score (difference BHV-4157 vs placebo): enriched genotypes
Text: This example describes a further analysis of the study of Example 1.

[5] = Tolerability in BHV4157-201 trial; conditions: patients with SCA
Text: as §2, with “Secondary Outcome Measures: • To assess the safety and tolerability of BHV-4157 in subjects with SCA by measuring the frequency and severity of adverse events and discontinuations of adverse events. [Time Frame: Baseline to week 8.]” left out, “Change in PGI-C score” left out
BHV4157-201 is an on-going Phase IIb/III, multicenter, randomized, double-blind, 2-arm placebo-controlled parallel-group study designed to assess safety, tolerability, and efficacy in a population of patients with Spinocerebellar Ataxia (SCA). […] The primary objective of the study is to compare the efficacy of troriluzole versus placebo on ataxia symptoms in patients with SCA as measured by the total score on the Scale for the Assessment and Rating of Ataxia (SARA). […]

CN(CC(=O)Nc1nc2ccc(OC(F)(F)F)cc2s1)C(=O)CNC(=O)CN [BHV-4157, troriluzole]
CGI Much Improved ([1]; Lighter at EXP sites): 14% | CGI Any Improvement ([1]; Lighter at EXP sites, n = 15): 60% (n = 15) | CGI Much Improved ([1]; Lighter sample): 27% | CGI Any Improvement ([1]; Lighter sample, n = 22): 64% (n = 22) | PGI Better and Definite . . . ([2]; Lighter at EXP sites): 19% | PGI Any Improvement ([2]; Lighter at EXP sites, n = 16): 45% (n = 16) | PGI “Better and Definite Improvement that has made a real & worthwhile difference” ([2]; Lighter sample): 17% | PGI Any Improvement ([2]; Lighter sample, n = 23): 34% (n = 23) | Mod SARA change (SD) from Randomization Baseline ([3]; All Patients, 8 weeks): −0.4 (1.50) | Mod SARA change (SD) from Randomization Baseline ([3]; All Patients, 36 weeks): −0.1 (1.30) | Mod SARA change (SD) from Randomization Baseline ([3]; Female Subgroup, 8 weeks): −0.3 (1.48) | Mod SARA change (SD) from Randomization Baseline ([3]; Female Subgroup, 24 weeks): −0.4 (1.32) | Mod SARA change (SD) from Randomization Baseline ([3]; Female Subgroup, 36 weeks): −0.1 (1.41) | Mod SARA change (SD) from Randomization Baseline ([3]; Female Subgroup, 48 weeks): −0.1 (1.50) | Mod SARA change (SD) from Randomization Baseline ([3]; Low Weight Subgroup, 8 weeks): −0.6 (1.56) | Mod SARA change (SD) from Randomization Baseline ([3]; Low Weight Subgroup, 24 weeks): −0.5 (1.44) | Mod SARA change (SD) from Randomization Baseline ([3]; Low Weight Subgroup, 36 weeks): −0.3 (1.34) | Mod SARA change (SD) from Randomization Baseline ([3]; Low Weight Subgroup, 48 weeks): −0.2 (1.41) | Mod SARA change (SD) from Randomization Baseline ([3]; Non-SCA1 & SCA2, 8 weeks): −0.3 (1.58) | Mod SARA change (SD) from Randomization Baseline ([3]; Non-SCA1 & SCA2, 24 weeks): −0.3 (1.24) | Mod SARA change (SD) from Randomization Baseline ([3]; Non-SCA1 & SCA2, 36 weeks): −0.1 (1.44) | Mod SARA change (SD) from Randomization Baseline ([3]; Non-SCA1 & SCA2, 48 weeks): −0.2 (1.44) | Mod SARA change (SD) from Randomization Baseline ([3]; SCA1 & SCA2, 8 weeks): −0.5 (1.47) | Mod SARA change (SD) from Randomization Baseline ([3]; SCA1 & SCA2, 24 weeks): −0.4 (1.45) | Mod SARA change (SD) from Randomization Baseline ([3]; SCA1 & SCA2, 36 weeks): −0.1 (1.20) | Mod SARA change (SD) from Randomization Baseline ([3]; SCA1 & SCA2, 48 weeks): 0.1 (1.44) | improvement in the axial SARA score ([3]; at 6 months): −0.1 point | Modified SARA, week 8 StdChg ([4]; All SCA, n = 63, May-18): 0.453 | Modified SARA, week 8 Δ Mean ([4]; All SCA, n = 63, May-18): −0.429 | Modified SARA, week 8 StdChg ([4]; SCA1 and SCA2, first Stable column, n = 31): 0.405 | Modified SARA, week 8 Δ Mean ([4]; SCA1 and SCA2, first column headed Stable (−1 < diff < 1), n = 31, Stable 2 in Table 16): −0.387 | Modified SARA, week 8 StdChg ([4]; SCA1 and SCA2, n = 33): 0.399 | Modified SARA, week 8 Δ Mean ([4]; SCA1 and SCA2, n = 33, May-18): −0.424 | Modified SARA, week 8 StdChg ([4]; SCA1 and SCA2, second Stable column, n = 14): 0.313 | Modified SARA, week 8 Δ Mean ([4]; SCA1 and SCA2, second column headed Stable (−1 < diff < 1), n = 14, Stable 1 in Table 16): −0.286 | change in SARA score (difference BHV-4157 vs placebo) ([4]; stable 2 group, 8 weeks): 0.24 | change in SARA score (difference BHV-4157 vs placebo) ([4]; stable group 1, 8 weeks): 0.20 | tolerability profile [5]: favorable
